# Values of other authors as cited in article PMC11843658 (Journal of Enzyme Inhibition and Medicinal Chemistry, 2025).
# Target: LSD1 (Homo sapiens, UniProt O60341)
# Parameters: purchased Cayman Chemical (Ann Arbor, MI)
# Conditions: cited from earlier work
smiles,measurement,value
CC/C(=C\c1ccccc1)[C@@H]1C[C@H]1NC1CC2(C1)CN(CCO)C2 [Compound 5],mode of LSD1 inhibition,covalently inhibits LSD1
